{
  "source": "patent US10519183B2",
  "about": "“Amine solvate of sodium-glucose linked transporter inhibitor, and preparation method and application thereof” (Youngene Therapeutics Co., Ltd., priority 2016, dated 2019)",
  "key": {"[1]": {"target": "T1, SGLT1 (Homo sapiens, UniProt P13866)", "T1 sequence (P13866 1-664)": "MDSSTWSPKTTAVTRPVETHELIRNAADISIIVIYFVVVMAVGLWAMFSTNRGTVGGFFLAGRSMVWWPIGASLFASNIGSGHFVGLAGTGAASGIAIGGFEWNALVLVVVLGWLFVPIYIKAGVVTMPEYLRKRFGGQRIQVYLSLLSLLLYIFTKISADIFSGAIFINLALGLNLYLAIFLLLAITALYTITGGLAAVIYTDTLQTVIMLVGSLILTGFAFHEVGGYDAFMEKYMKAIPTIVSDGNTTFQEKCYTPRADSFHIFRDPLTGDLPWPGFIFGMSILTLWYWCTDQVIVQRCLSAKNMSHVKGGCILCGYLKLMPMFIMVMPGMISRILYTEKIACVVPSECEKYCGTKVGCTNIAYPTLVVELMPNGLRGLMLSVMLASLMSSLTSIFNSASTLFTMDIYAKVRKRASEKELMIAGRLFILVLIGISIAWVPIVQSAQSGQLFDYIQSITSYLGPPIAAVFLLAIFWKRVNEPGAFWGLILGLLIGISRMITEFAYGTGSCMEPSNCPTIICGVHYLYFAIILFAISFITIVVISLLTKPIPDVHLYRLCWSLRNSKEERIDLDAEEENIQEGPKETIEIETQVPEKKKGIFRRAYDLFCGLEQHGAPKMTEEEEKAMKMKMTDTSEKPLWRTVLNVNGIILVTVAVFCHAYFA", "details": "cited from earlier work"}, "[2]": {"experiment": "stress study on physical stability and chemical stability (80° C., one week)", "type": "physicochemical", "details": "for Chemical purity: HPLC", "experimental": "The stress study on the physical stability and chemical stability of the diethylamine solvate of the compound of formula (I) and the amorphous compound of formula (I) were carried out. The diethylamine solvate of the compound of formula (I) obtained in Example 3 and the amorphous compound of formula (I) were placed in glass vials respectively in duplicate, about 10 mg each sample. These samples for stability test were placed in an incubator at 80° C. for one week. After being placed for one week, one sample was used for the chemical purity analysis by HPLC method. The other sample was used for the crystal characterization by XRPD."}, "[3]": {"target": "T2, SGLT2 (Homo sapiens, UniProt P31639)", "T2 sequence (P31639 1-672)": "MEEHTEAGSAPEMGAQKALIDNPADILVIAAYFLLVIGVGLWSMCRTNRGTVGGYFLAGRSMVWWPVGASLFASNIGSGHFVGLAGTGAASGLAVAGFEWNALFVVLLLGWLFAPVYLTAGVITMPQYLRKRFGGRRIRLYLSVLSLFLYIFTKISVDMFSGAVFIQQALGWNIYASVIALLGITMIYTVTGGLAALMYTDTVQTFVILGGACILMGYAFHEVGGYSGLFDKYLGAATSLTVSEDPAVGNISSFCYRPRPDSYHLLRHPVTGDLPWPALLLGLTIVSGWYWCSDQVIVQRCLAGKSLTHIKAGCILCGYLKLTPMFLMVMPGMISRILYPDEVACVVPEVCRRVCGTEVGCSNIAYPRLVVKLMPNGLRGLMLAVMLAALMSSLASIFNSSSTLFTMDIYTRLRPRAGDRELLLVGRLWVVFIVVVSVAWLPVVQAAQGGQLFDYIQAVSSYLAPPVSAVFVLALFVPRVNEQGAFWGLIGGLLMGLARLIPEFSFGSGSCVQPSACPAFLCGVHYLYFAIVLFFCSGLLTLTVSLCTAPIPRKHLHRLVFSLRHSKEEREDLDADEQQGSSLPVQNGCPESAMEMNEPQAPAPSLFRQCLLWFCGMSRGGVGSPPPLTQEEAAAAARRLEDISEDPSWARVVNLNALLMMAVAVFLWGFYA", "details": "cited from earlier work"}},
  "data": [
    {"molecule": "CCc1ccc([C@]23OC[C@](CO)(O2)[C@@H](O)[C@H](O)[C@H]3O)cc1Cc1ccc2c(c1)OCCO2", "note": "[compound of formula (I), (1S,2S,3S,4R,5S)-5-(3-((2,3-dihydrobenzo[b][1,4]dioxin-6-yl)methyl)-4-ethylphenyl)-1-(hydroxymethyl)-6,8-dioxabicyclo[3.2.1]octane-2,3,4-triol]", "values": [
      {"measurement": "inhibitory effect on SGLT1", "setting": "[1]", "value": "significant inhibitory effect"},
      {"measurement": "degradation at high temperature", "setting": "[2]; 80° C., stress stability test", "value": "changed and degraded immediately"},
      {"measurement": "Chemical purity", "setting": "[2]; After being placed for one week at 80° C.", "value": 90.2, "unit": "%"},
      {"measurement": "Chemical purity", "setting": "[2]; Initial state of the samples", "value": 95.1, "unit": "%"},
      {"measurement": "inhibitory effect on SGLT2", "setting": "[3]", "value": "very significant inhibitory effect"}
    ]}
  ]
}
